± gives the expanded uncertainty stated by the source.
Assays:
[1] = refractive index (Na D-line) (dimensionless); xn = mol fraction of the nth substance listed; settings: 298.15 K, 101 kPa, Liquid
[2] = xn = mol fraction of the nth substance listed; settings: 298.15 K, 101 kPa, Liquid; for electrical conductivity: DDSJ-308A Conductometer

## C=CCn1cc[n+](C)c1.[Cl-] [1-allyl-3-methylimidazolium chloride] + O
[1]; x1 = 0.000171
  refractive index: 1.3329 ± 0.0051
[1]; x1 = 0.000362
  refractive index: 1.333 ± 0.0051
[1]; x1 = 0.000553
  refractive index: 1.3333 ± 0.0051
[1]; x1 = 0.000754
  refractive index: 1.3336 ± 0.0051
[1]; x1 = 0.001151
  refractive index: 1.334 ± 0.0051
[1]; x1 = 0.001575
  refractive index: 1.3346 ± 0.0051
[1]; x1 = 0.002478
  refractive index: 1.336 ± 0.0051
[1]; x1 = 0.003359
  refractive index: 1.3375 ± 0.0051
[1]; x1 = 0.004859
  refractive index: 1.34 ± 0.0051
[1]; x1 = 0.006386
  refractive index: 1.3421 ± 0.0051
[1]; x1 = 0.008102
  refractive index: 1.3452 ± 0.0051
[1]; x1 = 0.009949
  refractive index: 1.347 ± 0.0051
[1]; x1 = 0.01179
  refractive index: 1.3495 ± 0.0051
[1]; x1 = 0.01373
  refractive index: 1.352 ± 0.0051
[1]; x1 = 0.01765
  refractive index: 1.3574 ± 0.0051
[1]; x1 = 0.02156
  refractive index: 1.3635 ± 0.0051
[1]; x1 = 0.02565
  refractive index: 1.3676 ± 0.0051
[1]; x1 = 0.02973
  refractive index: 1.373 ± 0.0051
[1]; x1 = 0.03394
  refractive index: 1.3775 ± 0.0051
[1]; x1 = 0.04442
  refractive index: 1.3888 ± 0.0051
[1]; x1 = 0.05536
  refractive index: 1.3995 ± 0.005
[1]; x1 = 0.06646
  refractive index: 1.4084 ± 0.005
[1]; x1 = 0.07857
  refractive index: 1.4176 ± 0.005
[1]; x1 = 0.09138
  refractive index: 1.4315 ± 0.005
[1]; x1 = 0.1143
  refractive index: 1.4464 ± 0.005
[1]; x1 = 0.1369
  refractive index: 1.4574 ± 0.005
[1]; x1 = 0.1616
  refractive index: 1.4673 ± 0.005
[1]; x1 = 0.1867
  refractive index: 1.4742 ± 0.005
[1]; x1 = 0.211
  refractive index: 1.4831 ± 0.005
[2]; x1 = 0.000171
  electrical conductivity: 0.0795 ± 0.0079 S/m
  mass density: 1005 ± 7.4 kg/m3
  viscosity: 0.8974 ± 0.049 mPa·s
[2]; x1 = 0.000362
  electrical conductivity: 0.169 ± 0.017 S/m
  mass density: 1007.5 ± 7.4 kg/m3
  viscosity: 0.8946 ± 0.049 mPa·s
[2]; x1 = 0.000553
  electrical conductivity: 0.258 ± 0.026 S/m
  mass density: 1001 ± 7.3 kg/m3
  viscosity: 0.8979 ± 0.049 mPa·s
[2]; x1 = 0.000754
  electrical conductivity: 0.345 ± 0.035 S/m
  mass density: 1004.5 ± 7.4 kg/m3
  viscosity: 0.8954 ± 0.049 mPa·s
[2]; x1 = 0.001151
  electrical conductivity: 0.503 ± 0.05 S/m
  mass density: 1004 ± 7.4 kg/m3
  viscosity: 0.9008 ± 0.049 mPa·s
[2]; x1 = 0.001575
  electrical conductivity: 0.665 ± 0.067 S/m
  mass density: 1004.7 ± 7.4 kg/m3
  viscosity: 0.9038 ± 0.049 mPa·s
[2]; x1 = 0.002478
  electrical conductivity: 0.969 ± 0.097 S/m
  mass density: 1003 ± 7.3 kg/m3
  viscosity: 0.9234 ± 0.05 mPa·s
[2]; x1 = 0.003359
  electrical conductivity: 1.24 ± 0.12 S/m
  mass density: 1004.2 ± 7.4 kg/m3
  viscosity: 0.9356 ± 0.051 mPa·s
[2]; x1 = 0.004859
  electrical conductivity: 1.65 ± 0.17 S/m
  mass density: 1005 ± 7.3 kg/m3
  viscosity: 0.9802 ± 0.053 mPa·s
[2]; x1 = 0.006386
  electrical conductivity: 2.66 ± 0.27 S/m
  mass density: 1006 ± 7.3 kg/m3
  viscosity: 0.9919 ± 0.054 mPa·s
[2]; x1 = 0.008102
  electrical conductivity: 3.02 ± 0.3 S/m
  mass density: 1007.6 ± 7.4 kg/m3
  viscosity: 1.043 ± 0.056 mPa·s
[2]; x1 = 0.009949
  electrical conductivity: 3.29 ± 0.33 S/m
  mass density: 1008.5 ± 7.3 kg/m3
  viscosity: 1.061 ± 0.057 mPa·s
[2]; x1 = 0.01179
  electrical conductivity: 3.69 ± 0.37 S/m
  mass density: 1011.6 ± 7.4 kg/m3
  viscosity: 1.093 ± 0.058 mPa·s
[2]; x1 = 0.01373
  electrical conductivity: 3.94 ± 0.39 S/m
  mass density: 1016.5 ± 7.4 kg/m3
  viscosity: 1.129 ± 0.06 mPa·s
[2]; x1 = 0.01765
  electrical conductivity: 4.65 ± 0.47 S/m
  mass density: 1017.2 ± 7.4 kg/m3
  viscosity: 1.193 ± 0.063 mPa·s
[2]; x1 = 0.02156
  electrical conductivity: 5.33 ± 0.53 S/m
  mass density: 1021.8 ± 7.4 kg/m3
  viscosity: 1.252 ± 0.066 mPa·s
[2]; x1 = 0.02565
  electrical conductivity: 5.97 ± 0.6 S/m
  mass density: 1024 ± 7.4 kg/m3
  viscosity: 1.322 ± 0.069 mPa·s
[2]; x1 = 0.02973
  electrical conductivity: 6.23 ± 0.62 S/m
  mass density: 1026 ± 7.4 kg/m3
  viscosity: 1.394 ± 0.073 mPa·s
[2]; x1 = 0.03394
  electrical conductivity: 7.15 ± 0.72 S/m
  mass density: 1029.2 ± 7.4 kg/m3
  viscosity: 1.473 ± 0.076 mPa·s
[2]; x1 = 0.04442
  electrical conductivity: 6.83 ± 0.68 S/m
  mass density: 1040 ± 7.4 kg/m3
  viscosity: 1.677 ± 0.086 mPa·s
[2]; x1 = 0.05536
  electrical conductivity: 7.66 ± 0.77 S/m
  mass density: 1046.8 ± 7.4 kg/m3
  viscosity: 1.9 ± 0.097 mPa·s
[2]; x1 = 0.06646
  electrical conductivity: 7.92 ± 0.79 S/m
  mass density: 1054.2 ± 7.4 kg/m3
  viscosity: 2.166 ± 0.11 mPa·s
[2]; x1 = 0.07857
  electrical conductivity: 7.47 ± 0.75 S/m
  mass density: 1061.8 ± 7.4 kg/m3
  viscosity: 2.475 ± 0.12 mPa·s
[2]; x1 = 0.09138
  electrical conductivity: 7.2 ± 0.72 S/m
  mass density: 1073 ± 7.4 kg/m3
  viscosity: 3.118 ± 0.15 mPa·s
[2]; x1 = 0.1143
  electrical conductivity: 6.48 ± 0.65 S/m
  mass density: 1084.1 ± 7.3 kg/m3
  viscosity: 3.867 ± 0.19 mPa·s
[2]; x1 = 0.1369
  electrical conductivity: 5.67 ± 0.57 S/m
  mass density: 1092 ± 7.2 kg/m3
  viscosity: 4.806 ± 0.23 mPa·s
[2]; x1 = 0.1616
  electrical conductivity: 4.92 ± 0.49 S/m
  mass density: 1100 ± 7.1 kg/m3
  viscosity: 5.974 ± 0.28 mPa·s
[2]; x1 = 0.1867
  electrical conductivity: 4.13 ± 0.41 S/m
  mass density: 1105.8 ± 6.9 kg/m3
  viscosity: 7.441 ± 0.33 mPa·s
[2]; x1 = 0.211
  electrical conductivity: 3.91 ± 0.39 S/m
  mass density: 1110.2 ± 6.7 kg/m3
  viscosity: 7.9 ± 0.35 mPa·s
[2]; x1 = 0.2245
  electrical conductivity: 3.82 ± 0.38 S/m
  mass density: 1108.9 ± 6.6 kg/m3
  viscosity: 8.518 ± 0.37 mPa·s
[2]; x1 = 0.3233
  electrical conductivity: 2.63 ± 0.26 S/m
  mass density: 1127.8 ± 5.9 kg/m3
  viscosity: 18 ± 0.72 mPa·s
[2]; x1 = 0.5083
  electrical conductivity: 0.00974 ± 0.00097 S/m
  mass density: 1132.8 ± 4.6 kg/m3
  viscosity: 48 ± 2 mPa·s
[2]; x1 = 1
  electrical conductivity: 0.00695 ± 0.00069 S/m
  mass density: 1166 ± 2.7 kg/m3
  viscosity: 821 ± 310 mPa·s

— the NIST ThermoML archive (doi:10.1021/je900545v)
